# Experimental data reported in patent publication US20040266623A1, “SYNERGISTIC QUINCLORAC HERBICIDAL COMPOSITIONS” (priority 2003, published 2004).
# Tests used:
# Test in all cases: Greenhouse pot test, postemergent spray, visual control rating converted to percent control
# Type in all cases: in vivo
# crabgrass = tested on: crabgrass
# Method in brief: (§1)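 Steps: grow in soilless greenhouse media; spray at 43.46 gallons/acre; hold in greenhouse; score visually at 24 h to 21 days after treatment on a 1–9 scale; convert to percent control. Colby's two- and three-way equations give expected inhibition for mixtures.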
# plantain = tested on: plantain
# Method in brief: as §1
# white clover = tested on: white clover
# Method in brief: as §1
# dandelion = tested on: dandelion
# Method in brief: as §1
# [1] = Test 3, 7 DAT, scale 1=no control, 9=death of plant
# [2] = Test 3, 14 DAT, scale 1=no control, 9=death of plant
# [3] = Test 3, 21 DAT, scale 1=no control, 9=death of plant
# [4] = Test 3, 24 HAT, scale 1=no control, 9=death of plant
# [5] = Test 3, 72 HAT, scale 1=no control, 9=death of plant
structure (smiles),measurement,setting,value
Cc1nn(-c2cc(CC(Cl)C(=O)O)c(Cl)cc2F)c(=O)n1C(F)F (stereo not drawn) [Carfentrazone],% Control Crabgrass,"crabgrass; Test 1, 7 DAT, 0.01 lbs/A",77.8%
same,Control (1-9) Crabgrass,"crabgrass; Test 1, 7 DAT, 0.01 lbs/A",7
same,% Control Crabgrass,"crabgrass; Test 1, 7 DAT, 0.02 lbs/A",77.8%
same,Control (1-9) Crabgrass,"crabgrass; Test 1, 7 DAT, 0.02 lbs/A",7
same,% Control Crabgrass,"crabgrass; Test 1, 14 DAT, 0.01 lbs/A",33.3%
same,Control (1-9) Crabgrass,"crabgrass; Test 1, 14 DAT, 0.01 lbs/A",3
same,% Control Crabgrass,"crabgrass; Test 1, 14 DAT, 0.02 lbs/A",33.3%
same,Control (1-9) Crabgrass,"crabgrass; Test 1, 14 DAT, 0.02 lbs/A",3
same,% Control Crabgrass,"crabgrass; Test 1, 24 HAT, 0.01 lbs/A",22.2%
same,Control (1-9) Crabgrass,"crabgrass; Test 1, 24 HAT, 0.01 lbs/A",2
same,% Control Crabgrass,"crabgrass; Test 1, 24 HAT, 0.02 lbs/A",33.3%
same,Control (1-9) Crabgrass,"crabgrass; Test 1, 24 HAT, 0.02 lbs/A",3
same,% Control Crabgrass,"crabgrass; Test 1, 48 HAT, 0.01 lbs/A",33.3%
same,Control (1-9) Crabgrass,"crabgrass; Test 1, 48 HAT, 0.01 lbs/A",3
same,% Control Crabgrass,"crabgrass; Test 1, 48 HAT, 0.02 lbs/A",55.6%
same,Control (1-9) Crabgrass,"crabgrass; Test 1, 48 HAT, 0.02 lbs/A",5
same,% Control Crabgrass,"crabgrass; Test 4, 7 DAT, 0.01 lbs/A",55.6%
same,Control (1-9) Crabgrass,"crabgrass; Test 4, 7 DAT, 0.01 lbs/A",5
same,% Control Crabgrass,"crabgrass; Test 4, 7 DAT, 0.02 lbs/A",55.6%
same,Control (1-9) Crabgrass,"crabgrass; Test 4, 7 DAT, 0.02 lbs/A",5
same,% Control Crabgrass,"crabgrass; Test 4, 14 DAT, 0.01 lbs/A",55.6%
same,Control (1-9) Crabgrass,"crabgrass; Test 4, 14 DAT, 0.01 lbs/A",5
same,% Control Crabgrass,"crabgrass; Test 4, 14 DAT, 0.02 lbs/A",55.6%
same,Control (1-9) Crabgrass,"crabgrass; Test 4, 14 DAT, 0.02 lbs/A",5
same,% Control Plantain,"plantain; Test 4, 7 DAT, 0.01 lbs/A",100.0%
same,Control (1-9) Plantain,"plantain; Test 4, 7 DAT, 0.01 lbs/A",9
same,% Control Plantain,"plantain; Test 4, 7 DAT, 0.02 lbs/A",88.9%
same,Control (1-9) Plantain,"plantain; Test 4, 7 DAT, 0.02 lbs/A",8
same,% Control Plantain,"plantain; Test 4, 14 DAT, 0.01 lbs/A",100.0%
same,Control (1-9) Plantain,"plantain; Test 4, 14 DAT, 0.01 lbs/A",9
same,% Control Plantain,"plantain; Test 4, 14 DAT, 0.02 lbs/A",88.9%
same,Control (1-9) Plantain,"plantain; Test 4, 14 DAT, 0.02 lbs/A",8
same,% Control Clover,"white clover; Test 1, 7 DAT, 0.01 lbs/A",66.7%
same,Control (1-9) Clover,"white clover; Test 1, 7 DAT, 0.01 lbs/A",6
same,% Control Clover,"white clover; Test 1, 7 DAT, 0.02 lbs/A",66.7%
same,Control (1-9) Clover,"white clover; Test 1, 7 DAT, 0.02 lbs/A",6
same,% Control Clover,"white clover; Test 1, 14 DAT, 0.01 lbs/A",77.8%
same,Control (1-9) Clover,"white clover; Test 1, 14 DAT, 0.01 lbs/A",7
same,% Control Clover,"white clover; Test 1, 14 DAT, 0.02 lbs/A",100.0%
same,Control (1-9) Clover,"white clover; Test 1, 14 DAT, 0.02 lbs/A",9
same,% Control Clover,"white clover; Test 1, 24 HAT, 0.01 lbs/A",33.3%
same,Control (1-9) Clover,"white clover; Test 1, 24 HAT, 0.01 lbs/A",3
same,% Control Clover,"white clover; Test 1, 24 HAT, 0.02 lbs/A",33.3%
same,Control (1-9) Clover,"white clover; Test 1, 24 HAT, 0.02 lbs/A",3
same,% Control Clover,"white clover; Test 1, 48 HAT, 0.01 lbs/A",55.6%
same,Control (1-9) Clover,"white clover; Test 1, 48 HAT, 0.01 lbs/A",5
same,% Control Clover,"white clover; Test 1, 48 HAT, 0.02 lbs/A",55.6%
same,Control (1-9) Clover,"white clover; Test 1, 48 HAT, 0.02 lbs/A",5
same,% Control Clover,"white clover; Test 4, 7 DAT, 0.01 lbs/A",66.7%
same,Control (1-9) Clover,"white clover; Test 4, 7 DAT, 0.01 lbs/A",6
same,% Control Clover,"white clover; Test 4, 7 DAT, 0.02 lbs/A",77.8%
same,Control (1-9) Clover,"white clover; Test 4, 7 DAT, 0.02 lbs/A",7
same,% Control Clover,"white clover; Test 4, 14 DAT, 0.01 lbs/A",66.7%
same,Control (1-9) Clover,"white clover; Test 4, 14 DAT, 0.01 lbs/A",6
same,% Control Clover,"white clover; Test 4, 14 DAT, 0.02 lbs/A",88.9%
same,Control (1-9) Clover,"white clover; Test 4, 14 DAT, 0.02 lbs/A",8
same,% Control Dandelion,"dandelion; Test 1, 7 DAT, 0.01 lbs/A",88.9%
same,Control (1-9) Dandelion,"dandelion; Test 1, 7 DAT, 0.01 lbs/A",8
same,% Control Dandelion,"dandelion; Test 1, 7 DAT, 0.02 lbs/A",88.9%
same,Control (1-9) Dandelion,"dandelion; Test 1, 7 DAT, 0.02 lbs/A",8
same,% Control Dandelion,"dandelion; Test 1, 14 DAT, 0.01 lbs/A",88.9%
same,Control (1-9) Dandelion,"dandelion; Test 1, 14 DAT, 0.01 lbs/A",8
same,% Control Dandelion,"dandelion; Test 1, 14 DAT, 0.02 lbs/A",100.0%
same,Control (1-9) Dandelion,"dandelion; Test 1, 14 DAT, 0.02 lbs/A",9
same,% Control Dandelion,"dandelion; Test 1, 24 HAT, 0.01 lbs/A",44.4%
same,Control (1-9) Dandelion,"dandelion; Test 1, 24 HAT, 0.01 lbs/A",4
same,% Control Dandelion,"dandelion; Test 1, 24 HAT, 0.02 lbs/A",33.3%
same,Control (1-9) Dandelion,"dandelion; Test 1, 24 HAT, 0.02 lbs/A",3
same,% Control Dandelion,"dandelion; Test 1, 48 HAT, 0.01 lbs/A",55.6%
same,Control (1-9) Dandelion,"dandelion; Test 1, 48 HAT, 0.01 lbs/A",5
same,% Control Dandelion,"dandelion; Test 1, 48 HAT, 0.02 lbs/A",55.6%
same,Control (1-9) Dandelion,"dandelion; Test 1, 48 HAT, 0.02 lbs/A",5
same,% Control Dandelion,"dandelion; Test 4, 7 DAT, 0.01 lbs/A",55.6%
same,Control (1-9) Dandelion,"dandelion; Test 4, 7 DAT, 0.01 lbs/A",5
same,% Control Dandelion,"dandelion; Test 4, 7 DAT, 0.02 lbs/A",88.9%
same,Control (1-9) Dandelion,"dandelion; Test 4, 7 DAT, 0.02 lbs/A",8
same,% Control Dandelion,"dandelion; Test 4, 14 DAT, 0.01 lbs/A",55.6%
same,Control (1-9) Dandelion,"dandelion; Test 4, 14 DAT, 0.01 lbs/A",5
same,% Control Dandelion,"dandelion; Test 4, 14 DAT, 0.02 lbs/A",88.9%
same,Control (1-9) Dandelion,"dandelion; Test 4, 14 DAT, 0.02 lbs/A",8
Cc1nn(-c2cc(NS(C)(=O)=O)c(Cl)cc2Cl)c(=O)n1C(F)F [Sulfentrazone @ 0.03 lbs/A],% Control Crabgrass,"crabgrass; Test 3, 7 DAT",55.6%
same,Control (1-9) Crabgrass,crabgrass; [1],5
same,% Control Crabgrass,"crabgrass; Test 3, 14 DAT",55.6%
same,Control (1-9) Crabgrass,crabgrass; [2],5
same,% Control Crabgrass,"crabgrass; Test 3, 21 DAT",44.4%
same,Control (1-9) Crabgrass,crabgrass; [3],4
same,% Control Crabgrass,"crabgrass; Test 3, 24 HAT",11.1%
same,Control (1-9) Crabgrass,crabgrass; [4],1
same,% Control Crabgrass,"crabgrass; Test 3, 72 HAT",44.4%
same,Control (1-9) Crabgrass,crabgrass; [5],4
same,% Control Plantain,"plantain; Test 3, 7 DAT",88.9%
same,Control (1-9) Plantain,plantain; [1],8
same,% Control Plantain,"plantain; Test 3, 14 DAT",88.9%
same,Control (1-9) Plantain,plantain; [2],8
same,% Control Plantain,"plantain; Test 3, 21 DAT",100.0%
same,Control (1-9) Plantain,plantain; [3],9
same,% Control Plantain,"plantain; Test 3, 24 HAT",44.4%
same,Control (1-9) Plantain,plantain; [4],4
same,% Control Plantain,"plantain; Test 3, 72 HAT",66.7%
same,Control (1-9) Plantain,plantain; [5],6
same,% Control Clover,"white clover; Test 3, 7 DAT",44.4%
same,Control (1-9) Clover,white clover; [1],4
same,% Control Clover,"white clover; Test 3, 14 DAT",55.6%
same,Control (1-9) Clover,white clover; [2],5
same,% Control Clover,"white clover; Test 3, 21 DAT",55.6%
same,Control (1-9) Clover,white clover; [3],5
same,% Control Clover,"white clover; Test 3, 24 HAT",22.2%
same,Control (1-9) Clover,white clover; [4],2
same,% Control Clover,"white clover; Test 3, 72 HAT",33.3%
same,Control (1-9) Clover,white clover; [5],3
same,% Control Dandelion,"dandelion; Test 3, 7 DAT",66.7%
same,Control (1-9) Dandelion,dandelion; [1],6
same,% Control Dandelion,"dandelion; Test 3, 14 DAT",77.8%
same,Control (1-9) Dandelion,dandelion; [2],7
same,% Control Dandelion,"dandelion; Test 3, 21 DAT",77.8%
same,Control (1-9) Dandelion,dandelion; [3],7
same,% Control Dandelion,"dandelion; Test 3, 24 HAT",33.3%
same,Control (1-9) Dandelion,dandelion; [4],3
same,% Control Dandelion,"dandelion; Test 3, 72 HAT",55.6%
same,Control (1-9) Dandelion,dandelion; [5],5
